Records with an inconclusive call do not appear. Activity calls are given as the source filed them. No rule for the calls is given here.
Target: Zinc finger protein mex-5 (Caenorhabditis elegans) (UniProt Q9XUB2)
Experiment: retest of MEX-5 TCR-2 binding inhibitors, confirmation, biochemical, C. elegans, fluorescence polarization, dose retest (AID 449745);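 also: potency is for blocking Mex-5 binding to labeled TCR2 RNA like unlabeled competitor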
Details: Mex-5 / TCR-2 RNA binding

Chain of Zinc finger protein mex-5 (Caenorhabditis elegans) (Q9XUB2 whole entry, looked up): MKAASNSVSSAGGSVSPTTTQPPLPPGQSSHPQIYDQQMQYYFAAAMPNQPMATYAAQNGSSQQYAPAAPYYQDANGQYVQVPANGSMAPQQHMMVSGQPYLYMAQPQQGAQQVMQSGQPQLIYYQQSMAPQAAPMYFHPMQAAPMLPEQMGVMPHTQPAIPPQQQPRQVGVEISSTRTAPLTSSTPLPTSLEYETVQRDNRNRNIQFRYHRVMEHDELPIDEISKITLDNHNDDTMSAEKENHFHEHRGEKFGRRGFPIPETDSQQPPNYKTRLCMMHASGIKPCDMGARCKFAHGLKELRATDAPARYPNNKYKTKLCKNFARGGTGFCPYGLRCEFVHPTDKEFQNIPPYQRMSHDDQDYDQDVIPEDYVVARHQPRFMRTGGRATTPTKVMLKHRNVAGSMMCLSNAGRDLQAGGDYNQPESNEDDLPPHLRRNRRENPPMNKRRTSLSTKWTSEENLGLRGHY

AC50 | Structure (SMILES)
18.7 µM | O=C(C[n+]1ccc(C(=O)N/N=C/c2ccc(OCc3ccccc3)cc2)cc1)c1ccccc1
> 38 µM (inactive) | O=C(N/N=C/c1oc(O)c2ccccc12)c1ccccc1O
13 µM | CCn1c(SCc2nc3sc(C(=O)O)c(C)c3c(=O)[nH]2)nc2ccccc21
> 38 µM (inactive) | Cc1c(N=NC2=C(O)CCCC2=O)c(=O)n(-c2ccccc2)n1C
